From US20260200919A1, “SUBSTITUTED AMINOPYRIDINE COMPOUNDS AND METHODS OF TREATING DISEASE USING SAME” (Atavistik Bio, Inc., priority 2023, published 2026)

What was measured:
[1] = biological target: T1, human recombinant kinase full-length wildtype AKT1 (Homo sapiens, UniProt P31749); experiment: AKT1 kinase assay (wildtype, TR-FRET, Lance); format: biochemical; settings: 0.6 nM wildtype AKT1, 50 nM Ulight-CREBtide, either 50 μM ATP or 2 mM ATP (not specified which), 60 min at RT
T1 construct: Purified human recombinant kinase full-length wildtype AKT1 was expressed in insect cells; made in house; host or cells: insect cells
T1 sequence (P31749 whole entry): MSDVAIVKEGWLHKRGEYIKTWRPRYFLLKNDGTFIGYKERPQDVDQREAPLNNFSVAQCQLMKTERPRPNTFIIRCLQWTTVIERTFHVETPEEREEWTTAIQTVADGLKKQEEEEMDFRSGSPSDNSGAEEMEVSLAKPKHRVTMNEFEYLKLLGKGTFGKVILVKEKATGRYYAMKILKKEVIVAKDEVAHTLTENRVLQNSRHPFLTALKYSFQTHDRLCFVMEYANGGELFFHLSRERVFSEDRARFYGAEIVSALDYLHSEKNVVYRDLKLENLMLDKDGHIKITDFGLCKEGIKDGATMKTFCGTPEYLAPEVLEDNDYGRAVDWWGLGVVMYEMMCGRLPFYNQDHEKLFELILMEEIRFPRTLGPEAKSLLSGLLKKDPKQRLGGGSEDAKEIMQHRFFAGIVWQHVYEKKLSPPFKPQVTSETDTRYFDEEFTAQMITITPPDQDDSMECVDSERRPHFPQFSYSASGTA
Outline: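 Insect-cell-expressed AKT1, activated in vitro by PDPK1, was used at 0.6 nM with 50 nM Ulight-CREBtide and 50 μM or 2 mM ATP in 50 mM HEPES pH 7.5, 1% DMSO, over a 10-point dose response.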

[2] = biological target: T2, human recombinant kinase full-length AKT1 E17K (Homo sapiens, UniProt P31749, E17K); experiment: AKT1 E17K kinase assay (TR-FRET, Lance); format: biochemical; settings: 0.6 nM AKT1 E17K, 50 nM Ulight-CREBtide, either 50 μM ATP or 2 mM ATP (not specified which), 60 min at RT
T2 construct: Purified human recombinant kinase full-length AKT1 E17K was expressed in insect cells; made in house; host or cells: insect cells
T2 sequence (P31749 whole entry E17K): as the sequence (P31749 whole entry) above, with E17K counted along it
Outline: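 Full-length human AKT1 E17K (insect cell-expressed, PDPK1-activated; 0.6 nM) with 50 nM ULight-CREBtide in HEPES pH 7.5 with MgCl2 and DTT. ATP at 50 μM or 2 mM, 1% DMSO, 10-point dose response, 60 min at RT.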

Row | IC50 [1] [nM] | IC50 [2] [nM] | Compound
1 | < 500 | < 50 | Cc1cc(C(=O)Nc2ccc(-n3c(-c4cccnc4N)nc4ccc(-c5ccccc5)nc43)cn2)ccc1C(=O)O [Compound 118, 4-((5-(2-(2-aminopyridin-3-yl)-5-phenyl-3H-imidazo[4,5-b]pyridin-3-yl)pyridin-2-yl)carbamoyl)-2-methylbenzoic acid]
2 | < 500 | 50 to 200 | C[C@H](c1ccc(C(=O)O)cc1F)N1CC(c2ccc(-n3c(-c4cccnc4N)nc4ccc(-c5ccccc5)nc43)cc2)C1 [Compound 160]
3 | < 500 | < 50 | Nc1ncccc1-c1nc2ccc(-c3ccccc3)nc2n1-c1ccc(C(=O)Nc2ccc(C(=O)O)cc2F)cc1 [Compound 180, 4-(4-(2-(2-aminopyridin-3-yl)-5-phenyl-3H-imidazo[4,5-b]pyridin-3-yl)benzamido)-3-fluorobenzoic acid]
4 | < 500 | > 500 | Nc1ncccc1-c1nc2ccc(-c3ccccc3)nc2n1-c1ccc(C2CCN(Cc3ccc(C(=O)O)cc3)CC2)cc1 [Compound 139, 4-((4-(4-(2-(2-aminopyridin-3-yl)-5-phenyl-3H-imidazo[4,5-b]pyridin-3-yl)phenyl)piperidin-1-yl)methyl)benzoic acid]
5 | < 500 | 50 to 200 | Cc1cc(C(=O)Nc2ccc(-n3c(-c4cccnc4N)nc4ccc(-c5ccccc5)nc43)cn2)c(F)cc1C(=O)O [Compound 145]
6 | < 500 | > 500 | Cc1cc(C(=O)O)ccc1NC(=O)c1ccc(-n2c(-c3cccnc3N)nc3ccc(-c4ccccc4)nc32)cn1 [Compound 178, 4-(5-(2-(2-aminopyridin-3-yl)-5-phenyl-3H-imidazo[4,5-b]pyridin-3-yl)picolinamido)-3-methylbenzoic acid]
7 | < 500 | > 500 | CC(c1ccc(C(=O)O)cc1)N1CC(c2ccc(-n3c(-c4cccnc4N)nc4ccc(-c5ccccc5)nc43)cn2)C1 (centres unmarked) [Compound 167, 4-(1-(3-(5-(2-(2-aminopyridin-3-yl)-5-phenyl-3H-imidazo[4,5-b]pyridin-3-yl)pyridin-2-yl)azetidin-1-yl)ethyl)benzoic acid]
8 | < 500 | 200 to 500 | CC(c1ccc(C(=O)O)cc1)N1CC(c2ccc(-n3c(-c4cccnc4N)nc4ccc(-c5ccccc5)nc43)cc2F)C1 (centres unmarked) [Compound 166, 4-(1-(3-(4-(2-(2-aminopyridin-3-yl)-5-phenyl-3H-imidazo[4,5-b]pyridin-3-yl)-2-fluorophenyl)azetidin-1-yl)ethyl)benzoic acid]

More lines, now with the values behind:

Row | Compound | IC50 [1] [nM] | IC50 [2] [nM]
9 | Nc1ncccc1-c1nc2ccc(-c3ccccc3)nc2n1-c1ccc(NC(=O)c2ccc(C(=O)O)cc2)cc1 [Compound 53] | < 500 | < 50
10 | Cc1cc(C(=O)O)ccc1C(=O)Nc1ccc(-n2c(-c3cccnc3N)nc3ccc(-c4ccccc4)nc32)cn1 [Compound 63, 4-[[5-[2-(2-amino-3-pyridyl)-5-phenyl-imidazo[4,5-b]pyridin-3-yl]-2-pyridyl]carbamoyl]-3-methyl-benzoic acid] | < 500 | 200 to 500
11 | COc1ccc2nc(-c3cccnc3N)n(-c3ccc(CNC(=O)c4cccc(C(=O)O)c4F)cc3)c2c1 [Compound 103, 3-((4-(2-(2-aminopyridin-3-yl)-6-methoxy-1H-benzo[d]imidazol-1-yl)benzyl)carbamoyl)-2-fluorobenzoic acid] | > 500 | > 500
12 | Nc1ncccc1-c1nc2ccc(-c3ccccc3)nc2n1-c1ccc(NCc2ccc(C(=O)O)cc2F)nc1 [Compound 68, 4-[[[5-[2-(2-amino-3-pyridyl)-5-phenyl-imidazo[4,5-b]pyridin-3-yl]-2-pyridyl]amino]methyl]-3-fluoro-benzoic acid] | < 500 | 50 to 200
13 | Nc1ncccc1-c1nc2cc(-c3cccnc3)cnc2n1-c1ccc(CNC(=O)c2ccc(CC(=O)O)cc2)cc1 [Compound 88, 2-(4-((4-(2-(2-aminopyridin-3-yl)-6-(pyridin-3-yl)-3H-imidazo[4,5-b]pyridin-3-yl)benzyl)carbamoyl)phenyl) acetic acid] | < 500 | > 500
14 | COc1ccc2nc(-c3cccnc3N)n(-c3ccc(CNC(=O)c4ccc(C(=O)O)cc4C)cc3)c2c1 [Compound 102, 4-((4-(2-(2-aminopyridin-3-yl)-6-methoxy-1H-benzo[d]imidazol-1-yl)benzyl)carbamoyl)-3-methylbenzoic acid] | < 500 | > 500
15 | Nc1ncccc1-c1nc2ccc(-c3ccccc3)nc2n1-c1ccc(NC(=O)c2cccc(C(=O)O)c2F)nc1 [Compound 61, 3-((5-(2-(2-aminopyridin-3-yl)-5-phenyl-3H-imidazo[4,5-b]pyridin-3-yl)pyridin-2-yl)carbamoyl)-2-fluorobenzoic acid] | < 500 | 50 to 200
16 | CC(=O)Nc1ccc(-c2cnc3c(c2)nc(-c2cccnc2N)n3-c2ccc(CNC(=O)c3cccc(CC(=O)O)c3)cc2)cc1 [Compound 84, 2-(3-((4-(6-(4-acetamidophenyl)-2-(2-aminopyridin-3-yl)-3H-imidazo[4,5-b]pyridin-3-yl)benzyl)carbamoyl)phenyl) acetic acid] | < 500 | 50 to 200
17 | Nc1ncccc1-c1nc2ccc(-c3ccccc3)nc2n1-c1ccc(NC(=O)c2cccc(CC(=O)O)c2)c(F)c1 [Compound 67, 2-(3-((4-(2-(2-aminopyridin-3-yl)-5-phenyl-3H-imidazo[4,5-b]pyridin-3-yl)-2-fluorophenyl)carbamoyl)phenyl) acetic acid] | < 500 | 50 to 200
18 | Nc1ncccc1-c1nc2ccc(-c3ccccc3)nc2n1-c1ccc(NC(=O)c2cccc(C(=O)O)c2)cc1 [Compound 54, 3-[[4-[2-(2-amino-3-pyridyl)-5-phenyl-imidazo[4,5-b]pyridin-3-yl]phenyl]carbamoyl]benzoic acid] | < 500 | < 50
19 | Nc1ncccc1-c1nc2ccc(-c3ccc(F)cc3)nc2n1-c1ccc(NC(=O)c2ccc(C(=O)O)cc2)nc1 [Compound 109, 4-((5-(2-(2-aminopyridin-3-yl)-5-(4-fluorophenyl)-3H-imidazo[4,5-b]pyridin-3-yl)pyridin-2-yl)carbamoyl)benzoic acid] | < 500 | 50 to 200
